The text below walks through data of US12661348B2, “Systemic formulation of a pyridinone derivate for TG2-related diseases” (Dr. Falk Pharma GmbH, priority 2020, dated 2026).

One series concerns the target T1, TG2 (Mus musculus, UniProt P21981).
T1 construct: The immune-histochemical localisation of the complex of compound of formula (I) and TG2 in the kidney tissue; from tissue; host or cells: kidney tissue of UUO C57BL/6 mice
T1 sequence (P21981 1-686): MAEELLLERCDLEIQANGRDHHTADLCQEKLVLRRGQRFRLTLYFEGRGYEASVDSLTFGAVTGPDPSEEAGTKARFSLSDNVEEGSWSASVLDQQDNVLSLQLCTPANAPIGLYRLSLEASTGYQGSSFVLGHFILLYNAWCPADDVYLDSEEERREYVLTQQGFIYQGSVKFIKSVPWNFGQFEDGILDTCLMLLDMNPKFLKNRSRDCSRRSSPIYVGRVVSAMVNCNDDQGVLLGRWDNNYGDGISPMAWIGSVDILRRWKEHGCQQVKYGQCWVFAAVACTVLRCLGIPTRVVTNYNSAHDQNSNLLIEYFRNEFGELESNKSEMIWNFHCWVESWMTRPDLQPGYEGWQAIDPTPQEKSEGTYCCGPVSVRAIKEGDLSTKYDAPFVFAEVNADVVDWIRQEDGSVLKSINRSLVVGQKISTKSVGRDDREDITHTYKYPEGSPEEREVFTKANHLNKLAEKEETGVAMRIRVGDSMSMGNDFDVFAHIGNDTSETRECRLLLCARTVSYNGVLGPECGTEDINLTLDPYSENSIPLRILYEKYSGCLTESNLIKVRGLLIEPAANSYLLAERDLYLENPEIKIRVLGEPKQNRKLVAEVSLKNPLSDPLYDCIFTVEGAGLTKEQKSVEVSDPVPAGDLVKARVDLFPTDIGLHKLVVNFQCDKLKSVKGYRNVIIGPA
The series is described as follows: Immune-histochemical localisation of the complex of compound and TG2 in kidney tissue of UUO-mice. In kind it is in vivo, C57BL/6-mouse. The conditions noted are these: oral, different dosages, compound-specific antibody. Here is the method:
Groups of 8 UUO-mice were treated directly after ligation of the ureter over a time period of two weeks with three different dosages of said compound: 100 mg/kg body weight, 300 mg/kg body weight, and 1000 mg/kg body weight. The daily dosage was administered orally as a suspension at intervals of 8 hours. In a control group, the UUO-mice were treated in same way but merely with the vehicle methyl cellulose. After the end of the treatment, the histopathological investigation of the kidney tissue as well as the determination of the amount of hydroxyproline in the kidney was performed. Furthermore, an immune-histochemical localisation of the complex of (S,E)-methyl-7-(1-(2-(2-ethylbutylamino)-2-oxoethyl)-2-oxo-1,2-dihydro-pyridin-3-ylamino)-6-(1-methyl-1H-imidazole-5-carboxamido)-7-oxohept-2-enoate and TG2 by means of (S,E)-methyl-7-(1-(2-(2-ethylbutylamino)-2-oxoethyl)-2-oxo-1,2-dihydro-pyridin-3-ylamino)-6-(1-methyl-1H-imidazole-5-carboxamido)-7-oxohept-2-enoate-specific antibody was carried out.

The subject of series [1] is STAM-model in the C57BL/6-mouse. Briefly: Stelic animal model (STAM-model) for non-alcoholic steatohepatitis. In kind it is in vivo. As for the experimental part: The anti-fibrotic effect of compound of formula (I) in the liver was investigated in a STAM-model for non-alcoholic steatohepatitis. This model bases on the induction of a chronical fibrotic inflammation of the liver by means of the combination of a chemical noxin (Streptozotocin) and a fat-containing diet in the C57BL/6-mouse. The pathology is similar to the described NASH in human.
Groups of 8 STAM-mice were treated directly over a time period of two weeks with three different dosages of said compound: 100 mg/kg body weight, 300 mg/kg body weight, and 1000 mg/kg body weight. The daily dosage was administered orally as a suspension in two parts at intervals of 8 hours. In a control group, the STAM-mice were treated in same way but merely with the vehicle methyl cellulose. After the end of the treatment, a measurement of the biochemical parameter in the Plasma and after dissection of the animals a histopathological investigation for the liver, the determination of the fat content of the liver as well as the determination of the expression of inflammation and fibrosis marker was performed.

The test system of series [2] is fibrotic liver or kidney diseases in human. The series is described as follows: Correlation of the anti-fibrotic effect in the animal model with the human pharmacokinetic. Format: in vivo. The conditions noted are these: from fibrotic area versus Cmax or AUC. As for the experimental part:
A comparison of the systemic exposure (Cmax, AUC) of (5,E)-methyl-7-(1-(2-(2-ethylbutylamino)-2-oxoethyl)-2-oxo-1,2-dihydro-pyridin-3-ylamino)-6-(1-methyl-1H-imidazole-5-carboxamido)-7-oxohept-2-enoate in dosage effective in the animal experiments with the systemic exposition which is achieved in human allows an estimation of the potential effective dose range.
In addition, the Cmax or AUC being achieved in human by the dosage of 10, 20, and 50 mg compound of formula (I) is shown.

The nature of series [3]: Pharmacokinetic in the C57BL/6-mouse. Format: in vivo. The conditions noted are these: oral suspension. Here is the method: The study serves to describe the pharmacokinetics of compound of formula (I) in the C57BL/6-mouse. The dosage was analogous to the dosage in the STAM-model (example 3) or in the UUO-model (example 2) in order to ensure the estimation of the systemic exposition in these models and to correlate the pharmacokinetic data with the efficacy data.
Groups of 12 C57BL/6-mice were treated with three different dosages of compound of formula (I) over a time period of 7 days: 100 mg/kg body weight, 300 mg/kg body weight, and 1000 mg/kg body weight. The daily dosage was administered orally as a suspension in two parts at intervals of 8 hours. On day 7 of treatment three different blood samples per animal were collected. The time points in the group were distributed in such a way that the 24 h-profile was covered with in total 12 different time points (3 animals per time point).
The determination of compound of formula (I) in the blood plasma was performed by means of a previously validated HLPC-MS/MS method.

Molecules are shown by their SMILES.

As for `CCC(CC)CNC(=O)Cn1cccc(NC(=O)[C@H](CC/C=C/C(=O)OC)NC(=O)c2cncn2C)c1=O` [compound of formula (I), (S,E)-methyl-7-(1-(2-(2-ethylbutylamino)-2-oxoethyl)-2-oxo-1,2-dihydro-pyridin-3-ylamino)-6-(1-methyl-1H-imidazole-5-carboxamido)-7-oxohept-2-enoate], the “immune-histochemical localisation of the complex of compound and TG2 in the kidney tissue” value at TG2 is “reach the target site and inhibits the target molecule”. Moreover, in series [1] (100, 300, 1000 mg/kg body weight daily, oral suspension in two parts, two weeks), the liver histology result is “significant, dosage dependent improvement”. For the same molecule, the “fibrotic area in the liver” value in series [1] (100, 300, 1000 mg/kg, significant in the middle and high dosage group) is given as “marked, dosage dependent reduction”. In addition, the liver inflammation entry in series [1] (STAM mice) was “dose-dependent and significant reduction”. In series [1] (STAM-mice, oral, two weeks), the “fat content in the liver” value is reported as “no influence”. Further, in series [1] (high dosage group, comparison with historical data), the “reduction of the fibrosis compared with positive control Telmisartan” value is “lay in the area of Telmisartan”. In addition, the “NAFLD Activity Score (NAS)” value in series [1] (middle and high dosage group (300, 1000 mg/kg), mainly reduction of inflammation and ballooning) is “reduced in the middle and high dosage group”. For the same molecule, the “human dosage at which the anti-fibrotic effect shown in the animal model can be achieved” value in series [2] was 20 mg. For the same molecule, in series [3], the “bioavailability in the mouse model” value is reported as “measurable”.
